From ChEMBL document CHEMBL1146263, “Antibiotic-conjugated polyacrylate nanoparticles: new opportunities for development of anti-MRSA agents” (Bioorg Med Chem Lett, 2007)
In brackets after ≈: the same amount, converted by molar mass.

Tests used:
[1] = Toxicity in human dermal fibroblasts; type: cell-based; conditions: fibroblast
Serum = experiment: Stability in human blood serum after 24 hrs; type: ADME, cell-free
Staphylococcus aureus [2] = experiment: Antibacterial activity against Staphylococcus aureus ATCC 25923 after 24 hrs by agar dilution method; type: functional; conditions: ATCC 25923, 24 h
[3] = Chemical stability up to 60 degC after 24 hrs; type: physicochemical
Staphylococcus aureus [4] = experiment: Antibacterial activity against methicillin-resistant Staphylococcus aureus ATCC 43300 after 24 hrs by agar dilution method; type: functional; conditions: ATCC 43300, 24 h

Compound | Activity [1] | Activity (Serum) | MIC (Staphylococcus aureus [2]) | Activity [3] | MIC (Staphylococcus aureus [4])
C=CC(=O)Oc1ccc(C2C(OC)C(=O)N2SC)cc1 (stereo not given) | Non-toxic | Stable | 128 µg/mL (≈ 436 µM) | Stable | 128 µg/mL (≈ 436 µM)
C=CC(=O)Oc1ccc(C2C(OC(=O)C=C)C(=O)N2SC)cc1 (stereo not given) | Non-toxic | Stable | 128 µg/mL (≈ 384 µM) | Stable | 128 µg/mL (≈ 384 µM)
C=CC(=O)OCCOC(=O)CCC(=O)OC1C(=O)N(SC)C1c1ccccc1Cl (stereo not given) | Non-toxic | Stable | 64 µg/mL (≈ 145 µM) | Stable | 64 µg/mL (≈ 145 µM)
C=CC(=O)OC1C(=O)N(SC)C1c1ccccc1Cl (stereo not given) | Non-toxic | Stable | 128 µg/mL (≈ 430 µM) | Stable | 128 µg/mL (≈ 430 µM)
